Where a name gives a salt, the structure may show the parent alone.
Assays:
AAK1 [1] = target: T1, AAK1 (Homo sapiens, UniProt Q2M2I8); assay: HEK281 cell-based assay (phospho-mu2 Western blot in transfected HEK293F cells); details: 3 hours incubation, read-out: CBA IC50
T1 construct: HA; expressed in transfected cells; host or cells: HEK293F
Method in brief: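 HEK293F cells co-transfected with full-length human AAK1/HA and Flag/AP2M1 were treated next day with 5 compound concentrations (3-fold dilutions) in DMEM+0.5% FBS for 3 hours at 37° C. Lysates were Western blotted for phospho-mu2, with total mu2 detected by anti-Flag.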

AAK1 [2] = target: T1, AAK1; assay: P81 filter plate assay; type: biochemical; details: full-length human AAK1, Mu2 substrate

T1 sequence (Q2M2I8 1-863 isoform Q2M2I8-2): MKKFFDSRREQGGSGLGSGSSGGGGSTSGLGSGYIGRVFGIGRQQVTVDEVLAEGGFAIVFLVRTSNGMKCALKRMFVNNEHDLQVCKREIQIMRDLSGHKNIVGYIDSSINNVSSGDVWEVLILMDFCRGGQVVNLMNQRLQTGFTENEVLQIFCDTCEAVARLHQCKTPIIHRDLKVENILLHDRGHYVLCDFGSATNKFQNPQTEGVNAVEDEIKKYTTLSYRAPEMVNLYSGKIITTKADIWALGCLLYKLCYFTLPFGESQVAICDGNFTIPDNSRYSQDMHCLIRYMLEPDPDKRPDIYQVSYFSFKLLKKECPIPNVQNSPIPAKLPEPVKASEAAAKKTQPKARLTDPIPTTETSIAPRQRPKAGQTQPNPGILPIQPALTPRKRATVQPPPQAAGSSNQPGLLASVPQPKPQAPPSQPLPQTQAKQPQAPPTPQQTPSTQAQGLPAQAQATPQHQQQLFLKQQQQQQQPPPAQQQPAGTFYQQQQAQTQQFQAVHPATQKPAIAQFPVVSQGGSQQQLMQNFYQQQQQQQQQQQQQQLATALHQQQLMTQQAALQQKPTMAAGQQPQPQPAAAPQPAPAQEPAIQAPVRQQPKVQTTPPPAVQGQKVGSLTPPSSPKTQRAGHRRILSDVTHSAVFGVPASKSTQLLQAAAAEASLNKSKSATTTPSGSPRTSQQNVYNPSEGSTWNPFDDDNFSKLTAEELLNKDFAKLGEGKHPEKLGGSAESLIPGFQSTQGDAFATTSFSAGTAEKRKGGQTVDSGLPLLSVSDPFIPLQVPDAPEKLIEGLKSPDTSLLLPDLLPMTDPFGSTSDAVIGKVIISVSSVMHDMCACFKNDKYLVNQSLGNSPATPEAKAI

Compound | melting point | IC50 (AAK1 [1]) [nM] | IC50 (AAK1 [2]) [nM]
CN(CCNc1ccc2ncc(-c3ccc(C(N)=O)cc3)n2n1)C(=O)NC(C)(C)C | 154 to 155 °C |  | 
CC(C)OC(=O)N1CCN(c2ccc3ncc(-c4ccccc4)n3n2)CC1 (as salt: hydrochloride) [4-(3-Phenyl-imidazo[1,2-b]pyridazin-6-yl)-piperazine-1-carboxylic acid isopropyl ester] | 232 to 233 °C (dec.) |  | 
COc1cnccc1-c1cnc2ccc(N3CCN(C(=O)OC(C)C)CC3)nn12 (as salt: hydrochloride) [Example 5.6.103, 4-[3-(3-Methoxy-pyridin-4-yl)-imidazo[1,2-b]pyridazin-6-yl]-piperazine-1-carboxylic acid isopropyl ester] | 217 to 218 °C (dec.) |  | 
COc1ccc(OC)c(-c2cnc3ccc(N4CCN(C(=O)OC(C)C)CC4)nn23)c1 [isopropyl 4-(3-(2,5-dimethoxyphenyl)imidazo[1,2-b]pyridazin-6-yl)piperazine-1-carboxylate] |  | ≤ 100 | ≤ 10
CC(C)OC(=O)N1CCN(c2ccc3ncc(-c4ccccc4OC(F)F)n3n2)CC1 [isopropyl 4-(3-(2-(difluoromethoxy)phenyl)imidazo[1,2-b]pyridazin-6-yl)piperazine-1-carboxylate] |  | ≤ 100 | ≤ 10
CC(C)OC(=O)N1CCN(c2ccc3ncc(-c4cccnc4OC(F)F)n3n2)CC1 [isopropyl 4-(3-(2-(difluoromethoxy)pyridin-3-yl)imidazo[1,2-b]pyridazin-6-yl)piperazine-1-carboxylate] |  | ≤ 100 | ≤ 10
CCOc1ccccc1-c1cnc2ccc(N3CCN(C(=O)OC(C)C)CC3)nn12 [isopropyl 4-(3-(2-ethoxyphenyl)imidazo[1,2-b]pyridazin-6-yl)piperazine-1-carboxylate] |  | ≤ 100 | ≤ 10
CCOc1ncccc1-c1cnc2ccc(N3CCN(C(=O)OC(C)C)CC3)nn12 [isopropyl 4-(3-(2-ethoxypyridin-3-yl)imidazo[1,2-b]pyridazin-6-yl)piperazine-1-carboxylate] |  | ≤ 10 | ≤ 10
COc1cccc(-c2cnc3ccc(N4CCN(C(=O)OC(C)C)CC4)nn23)c1F [isopropyl 4-(3-(2-fluoro-3-methoxyphenyl)imidazo[1,2-b]pyridazin-6-yl)piperazine-1-carboxylate] |  | ≤ 100 | ≤ 10
CC(C)OC(=O)N1CCN(c2ccc3ncc(-c4ccccc4F)n3n2)CC1 [isopropyl 4-(3-(2-fluorophenyl)imidazo[1,2-b]pyridazin-6-yl)piperazine-1-carboxylate] |  | ≤ 100 | ≤ 10
COc1nc(C)ccc1-c1cnc2ccc(N3CCN(C(=O)OC(C)C)CC3)nn12 [isopropyl 4-(3-(2-methoxy-6-methylpyridin-3-yl)imidazo[1,2-b]pyridazin-6-yl)piperazine-1-carboxylate] |  | ≤ 10 | ≤ 10
COc1ccccc1-c1cnc2ccc(N3CCN(C(=O)OC(C)C)CC3)nn12 [isopropyl 4-(3-(2-methoxyphenyl)imidazo[1,2-b]pyridazin-6-yl)piperazine-1-carboxylate] |  | ≤ 10 | ≤ 10
COc1ncccc1-c1cnc2ccc(N3CCN(C(=O)OC(C)C)CC3)nn12 [isopropyl 4-(3-(2-methoxypyridin-3-yl)imidazo[1,2-b]pyridazin-6-yl)piperazine-1-carboxylate] |  | ≤ 10 | ≤ 10
COc1cc(-c2cnc3ccc(N4CCN(C(=O)OC(C)C)CC4)nn23)ccn1 [isopropyl 4-(3-(2-methoxypyridin-4-yl)imidazo[1,2-b]pyridazin-6-yl)piperazine-1-carboxylate] |  | ≤ 100 | ≤ 10
CC(C)OC(=O)N1CCN(c2ccc3ncc(-c4ccc[nH]c4=O)n3n2)CC1 [isopropyl 4-(3-(2-oxo-1,2-dihydropyridin-3-yl)imidazo[1,2-b]pyridazin-6-yl)piperazine-1-carboxylate] |  | ≤ 100 | ≤ 10
CC(C)OC(=O)N1CCN(c2ccc3ncc(-c4cccc(Cl)c4)n3n2)CC1 [isopropyl 4-(3-(3-chlorophenyl)imidazo[1,2-b]pyridazin-6-yl)piperazine-1-carboxylate] |  | ≤ 1000 | ≤ 10
COc1cccc(-c2cnc3ccc(N4CCN(C(=O)OC(C)C)CC4)nn23)c1 [isopropyl 4-(3-(3-methoxyphenyl)imidazo[1,2-b]pyridazin-6-yl)piperazine-1-carboxylate] |  | ≤ 100 | ≤ 10
CC(C)OC(=O)N1CCN(c2ccc3ncc(-c4ccc(CN)cc4)n3n2)CC1 [isopropyl 4-(3-(4-(aminomethyl)phenyl)imidazo[1,2-b]pyridazin-6-yl)piperazine-1-carboxylate] |  | ≤ 10 | ≤ 10
COc1cc(C)c(F)cc1-c1cnc2ccc(N3CCN(C(=O)OC(C)C)CC3)nn12 [isopropyl 4-(3-(5-fluoro-2-methoxy-4-methylphenyl)imidazo[1,2-b]pyridazin-6-yl)piperazine-1-carboxylate] |  | ≤ 10 | ≤ 10
COc1ccc(F)cc1-c1cnc2ccc(N3CCN(C(=O)OC(C)C)CC3)nn12 [isopropyl 4-(3-(5-fluoro-2-methoxyphenyl)imidazo[1,2-b]pyridazin-6-yl)piperazine-1-carboxylate] |  | ≤ 10 | ≤ 10
COc1ncc(F)cc1-c1cnc2ccc(N3CCN(C(=O)OC(C)C)CC3)nn12 [isopropyl 4-(3-(5-fluoro-2-methoxypyridin-3-yl)imidazo[1,2-b]pyridazin-6-yl)piperazine-1-carboxylate] |  | ≤ 10 | ≤ 10
O=C(N1CCCCC1)N1CCN(c2ccc3ncc(-c4ccccn4)n3n2)CC1 [piperidin-1-yl(4-(3-(pyridin-2-yl)imidazo[1,2-b]pyridazin-6-yl)piperazin-1-yl)methanone] |  | ≤ 100 | ≤ 10
COc1ccccc1-c1cnc2ccc(N3CCC(N(C)C(=O)OC(C)(C)C)C3)nn12 (stereo not drawn) [tert-butyl (1-(3-(2-methoxyphenyl)imidazo[1,2-b]pyridazin-6-yl)pyrrolidin-3-yl)(methyl)carbamate] |  | ≤ 1000 | ≤ 10
COc1ncccc1-c1cnc2ccc(N3CCC(N(C)C(=O)OC(C)(C)C)C3)nn12 (stereo not drawn) [tert-butyl (1-(3-(2-methoxypyridin-3-yl)imidazo[1,2-b]pyridazin-6-yl)pyrrolidin-3-yl)(methyl)carbamate] |  | ≤ 100 | ≤ 10
CN(C(=O)OC(C)(C)C)C1CCN(c2ccc3ncc(-c4ccccc4)n3n2)C1 (stereo not drawn) [tert-butyl methyl(1-(3-phenylimidazo[1,2-b]pyridazin-6-yl)pyrrolidin-3-yl)carbamate] |  | ≤ 100 | ≤ 100
COc1ncccc1-c1cnc2ccc(N3CC[C@H](N(C)C(=O)OC(C)(C)C)C3)nn12 [{(S)-1-[3-(2-Methoxy-pyridin-3-yl)-imidazo[1,2-b]pyridazin-6-yl]-pyrolidin-3-yl}-methyl-carbamic acid tert-butyl ester] |  | ≤ 100 | ≤ 10
COc1ncccc1-c1cnc2ccc(N3CC[C@H](N(C)C(=O)OC(C)C)C3)nn12 [{(S)-1-[3-(2-Methoxy-pyridin-3-yl)-imidazo[1,2-b]pyridazin-6-yl]-pyrrolidin-3-yl}-methyl-carbamic acid isopropyl ester] |  | ≤ 10 | ≤ 10
